Experimental data reported in patent publication US10336707B2, “Heterocyclic derivatives modulating activity of certain protein kinases” (EUDENDRON S.R.L., priority 2014, dated 2019).
pIC50: −log10 of the molar value.

Legend:
RET wild-type = molecular target: T1, RET wild-type (Homo sapiens, UniProt P07949); test: Radiometric protein kinase assay (33PanQuinase Activity Assay), RET wild-type; format: biochemical; conditions: ATP 1.0 μM
T1 construct: either as full-length or enzymatically active fragments; purchased ProQinase GmbH (Freiburg, Germany)
Experimental: (§1) A proprietary radiometric protein kinase assay (33PanQuinase® Activity Assay) developed by ProQuinase GmbH (Freiburg, Germany) was used for measuring the kinase activity of selected protein kinases. All assays were performed in FlashPlates™ wells 96 Perkin Elmer (Boston, Mass., USA) in a reaction volume of 50 μl. The reaction mixture was obtained in 4 steps in the following order: • 1. 10 μl of a solution of non-radioactive ATP in water; • 2. 25 μl of assay buffer/[γ-^33P]-ATP mixture • 3. 5 μl of test sample in 10% DMSO • 4. 10 μl of enzyme/substrate mixture
(§2) All protein kinases provided by ProQinase were expressed in Sf9 insect cells or in E. coli as recombinant GST-fusion proteins or His-tagged proteins, either as full-length or enzymatically active fragments. […] Kinases from external vendors (CAR=Carna Biosciences Inc.; INV=Life Technologies (Invitrogen Corporation); MIL=Merck-Millipore (Millipore Corporation), were expressed, purified and quality-controlled by virtue of the vendors readings.
(§3) A stock solution of compound of formula (I) was diluted to 5×10-04M/100% DMSO. […] Incorporation of 33Pi (counting of “cpm”) was determined with a microplate scintillation counter (Microbeta, Wallac). […]
(§4) Based on each 10 corresponding residual activities, IC50 values were calculated using Prism 5.04 for Windows (Graphpad, San Diego, Calif.). […]

DDR2 T654M = molecular target: T2, DDR2 T654M (Homo sapiens, UniProt Q16832, T654M); test: Radiometric protein kinase assay (33PanQuinase Activity Assay), DDR2 T654M; format: biochemical; conditions: ATP 0.3 μM
T2 construct: either as full-length or enzymatically active fragments; purchased ProQinase GmbH (Freiburg, Germany)
T2 sequence (Q16832 22-855 T654M): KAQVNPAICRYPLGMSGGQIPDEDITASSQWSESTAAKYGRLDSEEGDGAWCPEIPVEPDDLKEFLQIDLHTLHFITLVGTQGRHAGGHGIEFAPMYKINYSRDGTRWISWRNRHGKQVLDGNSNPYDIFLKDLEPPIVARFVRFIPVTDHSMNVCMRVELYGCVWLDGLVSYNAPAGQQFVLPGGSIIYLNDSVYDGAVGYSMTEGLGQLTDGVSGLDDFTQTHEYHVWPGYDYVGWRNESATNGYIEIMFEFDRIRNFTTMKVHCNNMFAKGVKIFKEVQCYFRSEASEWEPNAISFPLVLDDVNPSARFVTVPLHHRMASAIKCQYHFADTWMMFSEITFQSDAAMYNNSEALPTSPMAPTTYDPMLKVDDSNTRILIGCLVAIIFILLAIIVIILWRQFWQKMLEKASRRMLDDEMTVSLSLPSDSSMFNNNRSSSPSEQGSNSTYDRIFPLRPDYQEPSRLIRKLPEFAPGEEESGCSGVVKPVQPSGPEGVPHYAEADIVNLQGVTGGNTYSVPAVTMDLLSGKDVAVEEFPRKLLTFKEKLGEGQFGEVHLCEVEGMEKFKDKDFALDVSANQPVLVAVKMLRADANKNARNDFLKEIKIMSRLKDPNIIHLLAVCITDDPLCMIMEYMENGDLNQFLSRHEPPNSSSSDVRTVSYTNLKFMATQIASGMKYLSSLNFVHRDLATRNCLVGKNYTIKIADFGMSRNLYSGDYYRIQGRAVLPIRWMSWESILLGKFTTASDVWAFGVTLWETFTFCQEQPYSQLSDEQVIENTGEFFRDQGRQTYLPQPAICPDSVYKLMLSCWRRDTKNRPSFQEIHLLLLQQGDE
Experimental: as §1, §2, §3, §4

NPM/ALK positive SUPM2 = test: Tritiated thymidine uptake cell proliferation assay, SUPM2; format: cell-based; conditions: SUP-M2; cell line SUPM2; read-out: IC50 of cellular proliferation, SUPM2
Experimental: Method: Tritiated Thymidine Uptake Cell Proliferation Assay
The following procedure was used with parent untransformed BaF3 cells, BaF3 cells transformed with the oncogenic fusion protein NPM/ALK, NPM/ALK positive SUDHL-1 cells, NPM/ALK positive SUPM2, ALK-negative HL60 cells, NPM/ALK positive KARPAS-299 cells. The parent untransformed BaF3 cells or Alk-negative HL60 cells are used as controls. Cells were seeded in U-bottomed 96-well plates at 10000 cells/well in a volume of 100 μl in supplemented medium. In the case of the parent untransformed BaF3 cells, the medium was supplemented with IL-3. Serial dilutions of inhibitors were added to the appropriate wells and volumes adjusted to 200 μl. Controls were treated with the equivalent volume of vehicle, DMSO, alone. Plates were incubated at 37° C. for 72 h. 3[H]-thymidine (1 μCi/well) was added for the last 16 h of incubation. Cells were harvested on to paper filters and 3[H]-thymidine incorporation was measured using a scintillation counter (1430 MicroBeta, Wallac, Turku, Finland). The 50% inhibitory concentration (IC50) was defined as the concentration of inhibitor, expressed in nanomolar units, that gave a 50% decrease in 3[H]-thymidine uptake compared with controls.
In Table 4 are reported the IC50 of cellular proliferation assays of example 3 versus ALK positive, mutated and negative cell lines.

T1 sequence (P07949 29-1114): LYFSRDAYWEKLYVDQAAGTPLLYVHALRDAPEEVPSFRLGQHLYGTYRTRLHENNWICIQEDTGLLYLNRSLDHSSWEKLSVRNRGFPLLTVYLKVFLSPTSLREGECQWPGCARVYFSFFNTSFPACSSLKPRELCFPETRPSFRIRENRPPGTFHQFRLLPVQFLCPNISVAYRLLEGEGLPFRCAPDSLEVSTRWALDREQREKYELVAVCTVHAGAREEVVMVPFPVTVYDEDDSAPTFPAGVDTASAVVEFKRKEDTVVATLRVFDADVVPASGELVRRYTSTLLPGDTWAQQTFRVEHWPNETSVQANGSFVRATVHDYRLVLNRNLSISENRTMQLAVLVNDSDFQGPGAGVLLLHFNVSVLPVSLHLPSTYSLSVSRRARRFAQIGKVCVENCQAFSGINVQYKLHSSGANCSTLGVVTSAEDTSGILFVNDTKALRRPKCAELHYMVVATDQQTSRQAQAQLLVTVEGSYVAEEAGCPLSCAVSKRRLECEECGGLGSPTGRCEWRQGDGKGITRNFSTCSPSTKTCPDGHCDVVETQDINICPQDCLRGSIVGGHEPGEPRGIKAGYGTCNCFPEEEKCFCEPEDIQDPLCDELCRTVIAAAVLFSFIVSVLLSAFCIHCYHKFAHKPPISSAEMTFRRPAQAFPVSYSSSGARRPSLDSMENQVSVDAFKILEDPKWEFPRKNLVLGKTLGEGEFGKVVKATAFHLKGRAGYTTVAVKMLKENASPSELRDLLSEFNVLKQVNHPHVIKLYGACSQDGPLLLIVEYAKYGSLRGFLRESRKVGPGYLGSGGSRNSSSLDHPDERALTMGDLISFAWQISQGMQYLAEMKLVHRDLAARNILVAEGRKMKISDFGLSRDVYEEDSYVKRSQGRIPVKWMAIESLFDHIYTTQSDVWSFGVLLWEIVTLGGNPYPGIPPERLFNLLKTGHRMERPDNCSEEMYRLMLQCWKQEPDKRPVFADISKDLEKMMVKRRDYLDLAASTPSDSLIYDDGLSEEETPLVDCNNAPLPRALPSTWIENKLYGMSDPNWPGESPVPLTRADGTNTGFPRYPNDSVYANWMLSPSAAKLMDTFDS

Structure (SMILES): CN1CCN(c2ccc(C(=O)Nc3n[nH]c4cc(-c5ccc(O)cc5)c(Cc5cc(F)cc(F)c5)cc34)c(NC3CCOCC3)c2)CC1 [Example 3, N-[5-[(3,5-difluorophenyl)methyl]-6-(4-hydroxyphenyl)-1H-indazol-3-yl]-4-(4-methylpiperazin-1-yl)-2-(tetrahydropyran-4-ylamino)benzamide]
- pIC50 (RET wild-type): 6.92
- pIC50 (DDR2 T654M): 7.08
- pIC50 (NPM/ALK positive SUPM2): 7.28
